Data as given in patent US9504729B2, “Antiangiogenic small molecules and methods of use” (The United States of America, as represented by the …, priority 2009, dated 2016).

Columns and labels:
FGFR1 = FGFR1 (Homo sapiens, UniProt P11362); assay: SelectScreen kinase activity profiling, FGFR1; type: biochemical; set-up: concentration or dose not given beside the values; settings: for Mean % Inhibition: mean of two independent trials
Text: (§1) To characterize the RTK inhibitory activity of the antiangiogenic SMs described herein, 36 compounds were chosen and screened using Invitrogen's SelectScreen® kinase activity profiling service (described on-line at tools.invitrogen.com/content.cfm?pageid=10413#selection). VEGFR1 and FGFR2 RTK inhibitory activities were studied. […] Overall, a small minority of the SMs tested had any substantial kinase inhibitory activity. This observation supports a mechanism of antiangiogenic action other than RTK inhibition for most of the SMs described herein.

KDR(VEGFR2) = KDR(VEGFR2) (Homo sapiens, UniProt P35968); assay: SelectScreen kinase activity profiling, KDR(VEGFR2); type: biochemical; set-up: % Inhibition / Mean % Inhibition: concentration or dose not given beside the values; settings: KDR(VEGFR2); for Mean % Inhibition: mean of two independent trials
KDR(VEGFR2), sequence (P35968 20-1356): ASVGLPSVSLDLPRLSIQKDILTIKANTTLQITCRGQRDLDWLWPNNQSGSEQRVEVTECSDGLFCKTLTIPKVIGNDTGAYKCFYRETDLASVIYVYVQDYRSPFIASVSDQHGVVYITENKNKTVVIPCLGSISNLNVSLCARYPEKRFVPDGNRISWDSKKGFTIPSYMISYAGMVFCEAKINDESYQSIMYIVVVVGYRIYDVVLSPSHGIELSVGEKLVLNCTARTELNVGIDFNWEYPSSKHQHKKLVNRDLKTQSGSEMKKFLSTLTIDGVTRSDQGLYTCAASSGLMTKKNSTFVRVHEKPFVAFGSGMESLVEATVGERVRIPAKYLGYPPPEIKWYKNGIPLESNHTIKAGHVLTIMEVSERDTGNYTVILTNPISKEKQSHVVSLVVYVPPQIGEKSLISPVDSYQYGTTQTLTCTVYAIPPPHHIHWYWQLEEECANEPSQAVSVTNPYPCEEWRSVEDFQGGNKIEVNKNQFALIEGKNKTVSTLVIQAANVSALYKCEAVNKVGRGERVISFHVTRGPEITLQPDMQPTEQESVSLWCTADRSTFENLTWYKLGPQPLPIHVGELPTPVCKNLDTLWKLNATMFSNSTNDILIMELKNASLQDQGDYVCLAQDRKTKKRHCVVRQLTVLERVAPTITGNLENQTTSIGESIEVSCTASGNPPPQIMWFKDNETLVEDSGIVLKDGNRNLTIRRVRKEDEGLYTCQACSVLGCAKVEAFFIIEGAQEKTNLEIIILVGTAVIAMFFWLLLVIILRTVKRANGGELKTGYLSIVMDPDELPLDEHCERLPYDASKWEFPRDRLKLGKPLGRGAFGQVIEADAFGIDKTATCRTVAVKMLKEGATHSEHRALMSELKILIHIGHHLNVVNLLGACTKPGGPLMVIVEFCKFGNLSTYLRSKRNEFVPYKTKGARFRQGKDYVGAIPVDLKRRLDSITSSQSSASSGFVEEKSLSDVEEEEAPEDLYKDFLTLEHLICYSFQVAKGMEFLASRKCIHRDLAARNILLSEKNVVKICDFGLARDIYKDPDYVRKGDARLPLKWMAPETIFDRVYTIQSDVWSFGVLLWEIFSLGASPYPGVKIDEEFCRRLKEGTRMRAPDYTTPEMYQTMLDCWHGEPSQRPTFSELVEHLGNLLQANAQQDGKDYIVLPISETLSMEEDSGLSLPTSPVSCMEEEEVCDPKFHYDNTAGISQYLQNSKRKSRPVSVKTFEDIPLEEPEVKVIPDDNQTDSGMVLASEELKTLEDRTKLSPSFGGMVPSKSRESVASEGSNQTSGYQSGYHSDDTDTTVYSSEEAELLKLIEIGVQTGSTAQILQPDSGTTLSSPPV
Text: as §1

[1] = first of two independent trials
[2] = second of two independent trials

FGFR1, sequence (P11362 398-822 limits assumed): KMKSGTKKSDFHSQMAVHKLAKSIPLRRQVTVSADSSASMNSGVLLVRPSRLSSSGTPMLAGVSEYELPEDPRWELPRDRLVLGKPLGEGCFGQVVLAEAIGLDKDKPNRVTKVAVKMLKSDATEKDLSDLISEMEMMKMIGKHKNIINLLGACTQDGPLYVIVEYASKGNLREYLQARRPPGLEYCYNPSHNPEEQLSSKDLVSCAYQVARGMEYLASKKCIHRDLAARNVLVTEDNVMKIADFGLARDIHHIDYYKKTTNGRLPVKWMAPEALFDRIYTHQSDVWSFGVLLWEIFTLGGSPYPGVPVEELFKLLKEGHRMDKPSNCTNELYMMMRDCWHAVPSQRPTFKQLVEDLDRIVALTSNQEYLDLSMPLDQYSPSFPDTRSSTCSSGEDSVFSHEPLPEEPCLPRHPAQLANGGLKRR

| Compound | % Inhibition (FGFR1; [1]) | Mean % Inhibition (FGFR1) | % Inhibition (FGFR1; [2]) | % Inhibition (KDR(VEGFR2); [1]) | Mean % Inhibition (KDR(VEGFR2)) | % Inhibition (KDR(VEGFR2); [2]) |
| --- | --- | --- | --- | --- | --- | --- |
| OC(c1cc(-c2ccccc2)nc2c1ccc1ccccc12)C1CCCCN1 (stereo not drawn) [compound 13480] | 5% | 8% | 10% | 4% | 3% | 2% |
| CC1(C)CC(Nc2ccc(Nc3ccccc3)cc2)CC(C)(C)N1 [compound 632536] | 1% | 4% | 7% | 15% | 16% | 16% |
| S=C1SCN(C2CCCCCCCCCCC2)CN1C1CCCCCCCCCCC1 [compound 209910] | 2% | 4% | 5% | 9% | 10% | 10% |
| CSC(=[SH+])[N-]N=Cc1cccc(C)n1.CSC(=[SH+])[N-]N=Cc1cccc(C)n1.[Cu] [compound 310551] | −5% | −3% | −1% | 21% | 20% | 18% |
| Cc1ccc(S(=O)(=O)OCC(=O)O)cc1 [compound 16555] | 3% | 3% | 3% | 11% | 11% | 11% |
| NC(=O)SCC(=O)Nc1ccc2ncccc2c1 [compound 36738] | −1% | 1% | 4% | 16% | 16% | 17% |
| COc1ccc(CC2C(=O)NC(C)C(=O)N(C)C3C(=O)N(C)C(Cc4ccc(O)c(c4)Oc4ccc(cc4)C3O)C(=O)NC(C)C(=O)NC(C)C(=O)N2C)cc1 (stereo not drawn) [compound 259968] | 5% | 3% | 2% | 8% | 8% | 9% |
| CC(C)(C)c1cc(C#N)cc(Br)c1OP(=O)(Oc1c(Br)cc(C#N)cc1C(C)(C)C)c1ccccc1 [compound 203328] | 4% | 4% | 4% | 9% | 8% | 7% |
| O=[N+]([O-])c1ccc(S(=O)(=O)Cc2ccccc2)c([N+](=O)[O-])c1 [compound 122657] | −3% | −3% | −3% | 14% | 14% | 14% |
| O=C(c1no[n+]([O-])c1C(=O)c1csc2ccccc12)c1csc2ccccc12 [compound 18877] | −3% | −2% | 0% | 10% | 7% | 4% |
| O=C1c2ccccc2NC(c2cc(Cl)cc(Cl)c2O)N1CCc1ccccn1 (stereo not drawn) [compound 328087] | 3% | 4% | 5% | 9% | 9% | 9% |
